Like-named read-outs stand apart in the source and are kept apart here.
How the values were obtained:
WSU-NHL cells [1] = experiment: pretreatment with Trichostatin A or Belinostat, Prednisolone and CHOP, viability by trypan blue exclusion; details: for sensitization to CHOP-treatment: pretreatment with the HDAC inhibitor alone before CHOP
Procedure: Viability was assessed by trypan blue exclusion at indicated time points (n=3). Significant differences were evaluated using Student's unpaired t-test. All tests were two-sided. Effects were considered statistically significant at *P<0.05, **P<0.01, ***P<0.001.

WSU-NHL cells [2] = experiment: pretreatment with VPA and prednisolone before CHOP, viability by trypan blue exclusion; type: cell-based
Description: Pretreatment with VPA before CHOP could theoretically increase the response to CHOP therapy through induction of DNA damage. However, VPA treatment could result in symptoms such as somnolence in a patient. These symptoms could be counteracted by simultaneous treatment with prednisolone. […] All tests were two-sided.

WSU-NHL cells [3] = experiment: Rituximab antibody-dependent cellular cytotoxicity (ADCC) with NK cells, dead target cells PKH26/7-AAD double positive; type: cell-based
Procedure: (§1) To estimate the impact of VPA on the antibody-dependent-cellular cytotoxicity (ADCC) induced by the CD20 antibody Rituximab. […]
(§2) NK cells were added as an effector to target cell ratio of 10:1, thereafter the cells were incubated for an additional 20 hours. Dead target cells were identified as double positive for PKH26 and 7-AAD and used as readout of the assay.

SU-DHL-8 cells [4] = experiment: as above; type: cell-based
Procedure: as §1, §2

SU-DHL-8 = experiment: cell viability time course by trypan blue exclusion, 0.5 mM or 1.5 mM VPA alone or with CHOP; type: cell-based; details: Homo sapiens, read-out: Viability (% of control cells day 1); for viability at 500 µM: SU-DHL-8, 0.5 mM VPA; for viability at 1500 µM: SU-DHL-8, 1.5 mM VPA
Procedure: (§3) The DLBCL cell lines SU-DHL-8 (Table 2A) and WSU-NHL (Table 2B) were treated for 72 hours with 0.5 mM or 1.5 mM VPA alone, or in combination with CHOP. The concentration of 0.5 mM VPA was chosen because it is a normal serum concentration during continuous VPA treatment in patients with epilepsy. The concentration of 1.5 mM VPA was chosen because it is the maximal tolerated serum concentration during 5 day VPA treatment for compassionate use as noted by the inventor.
(§4) The cell viability was assessed after 0 (Day 1), 24 (Day 2), 48 (Day 3) and 72 (Day 4) hours respectively, by trypan blue exclusion and normalised to untreated control cells. Data are presented as mean, n=3.
(§5) Treatment effects on viability were tested against the effects of CHOP treatment alone. […] All tests were two-sided. Effects were considered statistically significant at P<0.05 (*) and P<0.01 (**).
(§6) Viability (% of control cells day 1) are shown in Table 2A (SU-DHL-8) and Table 2B (WSU-NHL, n=3) respectively.

WSU-NHL = experiment: as above; type: cell-based; details: Homo sapiens, read-out: Viability (% of control cells day 1); for viability at 500 µM: 0.5 mM VPA; for viability at 1500 µM: 1.5 mM VPA
Procedure: as §3, §4, §5, §6

ULA cells = experiment: cell viability by trypan blue exclusion after 72 hours, VPA alone or in combination with CHOP; type: cell-based; details: for viability at 100 µM: 0.1 mM VPA; for viability at 2000 µM: 2 mM VPA; for viability at 10000 µM: 10 mM VPA
Procedure: (§7) The DLBCL cell lines WSU-NHL, Karpas-422, ULA, SU-DHL-5 and SU-DHL-8 cells were treated for 72 hours with three different concentrations (0.1 mM, 2 mM and 10 mM respectively) of valproic acid (VPA) alone, or in combination with CHOP. The CHOP regimen used in all examples consists of 10 μM cyclophosphamide monohydrate, 20 nM doxorubicin hydrochloride, 2 nM vincristine sulfate and 20 μg/ml prednisolone. (Ageberg, Rydström, Lindén, Linderoth, Jerkeman and Drott; Exp Cell Research; May 1; 317(8):1179-91).
(§8) The cell viability was assessed after 72 hours by trypan blue exclusion and normalised to untreated control cells at day 0 (seeding). Data are presented as mean±SEM, n=3.

WSU-NHL cells [5] = experiment: as above; type: cell-based; details: Homo sapiens; for viability at 100 µM: 0.1 mM VPA; for viability at 2000 µM: 2 mM VPA; for viability at 10000 µM: 10 mM VPA
Procedure: as §7, §8

SU-DHL-8 cells [6] = experiment: as above; type: cell-based; details: Homo sapiens, SU-DHL-8, 72 h; for viability at 100 µM: 0.1 mM VPA; for viability at 2000 µM: 2 mM VPA; for viability at 10000 µM: 10 mM VPA
Procedure: as §7, §8

SU-DHL-5 cells = experiment: as above; type: cell-based; details: Homo sapiens, SU-DHL-5, 72 h; for viability at 100 µM: 0.1 mM VPA; for viability at 2000 µM: 2 mM VPA; for viability at 10000 µM: 10 mM VPA
Procedure: as §7, §8

Karpas-422 cells = experiment: as above; type: cell-based; details: Homo sapiens, KARPAS-422, 72 h; for viability at 100 µM: 0.1 mM VPA; for viability at 2000 µM: 2 mM VPA; for viability at 10000 µM: 10 mM VPA
Procedure: as §7, §8

histone H3 = experiment: acetylation of histone H3 by western blot analysis in DLBCL cell line model; type: cell-based; details: valproic acid at pharmacological concentrations
[7] = continuous VPA treatment in patients with epilepsy; cited from earlier work
[8] = VPA serum concentration in patients; type: in vivo, human; details: 5 day VPA treatment for compassionate use as noted by the inventor
Procedure: as §3

[9] = 1.5 mM VPA for 24 hours before rituximab
[10] = Rituximab 0 μg/ml, +NK Cells + 1.5 mM VPA
[11] = Rituximab 0.1 μg/ml, +NK Cells + 1.5 mM VPA
[12] = Rituximab 0.1 μg/ml, +NK Cells + 1.5 mM VPA + CHOP
[13] = Rituximab 0.1 μg/ml, +NK cells + CHOP
[14] = Rituximab 1 μg/ml, +NK Cells + 1.5 mM VPA
[15] = Rituximab 1 μg/ml, +NK Cells + 1.5 mM VPA + CHOP
[16] = Rituximab 1 μg/ml, +NK cells + CHOP
[17] = Rituximab 10 μg/ml, +NK Cells + 1.5 mM VPA
[18] = Rituximab 10 μg/ml, +NK Cells + 1.5 mM VPA + CHOP
[19] = Rituximab 10 μg/ml, +NK cells + CHOP

## O=C(/C=C/c1cccc(S(=O)(=O)Nc2ccccc2)c1)NO [Belinostat]
WSU-NHL cells [1]
  sensitization to CHOP-treatment: sensitized DLBCL cell lines to CHOP-induced cell death

## C[C@]12C=CC(=O)C=C1CC[C@@H]1[C@@H]2[C@@H](O)C[C@@]2(C)[C@H]1CC[C@]2(O)C(=O)CO [Prednisolone]
WSU-NHL cells [2]; prednisolone (20 μg/ml) added to VPA pretreatment before CHOP, compared to pretreatment with VPA alone
  CHOP-induced cell death: further increases significantly CHOP-induced cell death
WSU-NHL cells [1]; prednisolone (20 μg/ml) added to HDAC inhibitor pretreatment before CHOP
  CHOP-induced cell death: significantly increases CHOP-induced cell death

## CC(/C=C/C(=O)NO)=C\[C@@H](C)C(=O)c1ccc(N(C)C)cc1 [TSA, Trichostatin A]
WSU-NHL cells [1]
  sensitization to CHOP-treatment: sensitizes lymphoma cell lines to CHOP-treatment

## CCCC(CCC)C(=O)O [VPA, valproic acid]
WSU-NHL cells [3]; [9]
  effect on Rituximab induced ADCC: does not affect Rituximab induced ADCC
WSU-NHL cells [3]; [10]
  percentage of dead cells, Mean: 27%
SU-DHL-8 cells [4]; [9]
  effect on Rituximab induced ADCC: does not affect Rituximab induced ADCC
SU-DHL-8 cells [4]; [10]
  percentage of dead cells, Mean: 34%
WSU-NHL cells [2]; pretreatment with VPA alone before CHOP
  sensitization to CHOP-treatment: sensitizes lymphoma cell lines to CHOP-treatment
SU-DHL-8; Day 1 (0 hours)
  viability at 500 µM: 100%
  viability at 1500 µM: 100%
SU-DHL-8; Day 2 (24 hours)
  viability at 500 µM: 102%
  viability at 1500 µM: 97%
SU-DHL-8; Day 3 (48 hours)
  viability at 500 µM: 101%
  viability at 1500 µM: 64%
SU-DHL-8; Day 4 (72 hours)
  viability at 500 µM: 94%
  viability at 1500 µM: 59%
WSU-NHL; Day 1 (0 hours)
  viability at 500 µM: 100%
  viability at 1500 µM: 100%
WSU-NHL; Day 2 (24 hours)
  viability at 500 µM: 97%
  viability at 1500 µM: 95%
WSU-NHL; Day 3 (48 hours)
  viability at 500 µM: 99%
  viability at 1500 µM: 68%
WSU-NHL; Day 4 (72 hours)
  viability at 500 µM: 98%
  viability at 1500 µM: 36%
ULA cells; +CHOP
  viability at 100 µM: 73%
  viability at 2000 µM: 52%
  viability at 10000 µM: 42%
ULA cells; −CHOP
  viability at 100 µM: 105%
  viability at 2000 µM: 52%
  viability at 10000 µM: 50%
WSU-NHL cells [5]; +CHOP
  viability at 100 µM: 63%
  viability at 2000 µM: 6%
  viability at 10000 µM: 0%
WSU-NHL cells [5]; −CHOP
  viability at 100 µM: 99%
  viability at 2000 µM: 29%
  viability at 10000 µM: 1%
SU-DHL-8 cells [6]; +CHOP
  viability at 100 µM: 55%
  viability at 2000 µM: 0%
  viability at 10000 µM: 0%
SU-DHL-8 cells [6]; −CHOP
  viability at 100 µM: 105%
  viability at 2000 µM: 67%
  viability at 10000 µM: 0%
SU-DHL-5 cells; +CHOP
  viability at 100 µM: 26%
  viability at 2000 µM: 1%
  viability at 10000 µM: 0%
SU-DHL-5 cells; −CHOP
  viability at 100 µM: 124%
  viability at 2000 µM: 53%
  viability at 10000 µM: 0%
Karpas-422 cells; +CHOP
  viability at 100 µM: 80%
  viability at 2000 µM: 67%
  viability at 10000 µM: 21%
Karpas-422 cells; −CHOP
  viability at 100 µM: 100%
  viability at 2000 µM: 102%
  viability at 10000 µM: 21%
Histone H3
  acetylation of histone H3: increase in acetylation of histone H3
[7]
  normal serum concentration: 0.5 mM
[8]
  maximal tolerated serum concentration: 1.5 mM

## Rituximab: the CD20 antibody Rituximab
WSU-NHL cells [3]; [11]
  percentage of dead cells, Mean: 40%
WSU-NHL cells [3]; [12]
  percentage of dead cells, Mean: 60%
WSU-NHL cells [3]; Rituximab 0.1 μg/ml, +NK cells
  percentage of dead cells, Mean: 35%
WSU-NHL cells [3]; [13]
  percentage of dead cells, Mean: 45%
WSU-NHL cells [3]; [14]
  percentage of dead cells, Mean: 50%
WSU-NHL cells [3]; [15]
  percentage of dead cells, Mean: 60%
WSU-NHL cells [3]; Rituximab 1 μg/ml, +NK cells
  percentage of dead cells, Mean: 45%
WSU-NHL cells [3]; [16]
  percentage of dead cells, Mean: 54%
WSU-NHL cells [3]; [17]
  percentage of dead cells, Mean: 56%
WSU-NHL cells [3]; [18]
  percentage of dead cells, Mean: 66%
WSU-NHL cells [3]; Rituximab 10 μg/ml, +NK cells
  percentage of dead cells, Mean: 54%
WSU-NHL cells [3]; [19]
  percentage of dead cells, Mean: 61%
SU-DHL-8 cells [4]; [11]
  percentage of dead cells, Mean: 43%
SU-DHL-8 cells [4]; [12]
  percentage of dead cells, Mean: 50%
SU-DHL-8 cells [4]; Rituximab 0.1 μg/ml, +NK cells
  percentage of dead cells, Mean: 38%
SU-DHL-8 cells [4]; [13]
  percentage of dead cells, Mean: 38%
SU-DHL-8 cells [4]; [14]
  percentage of dead cells, Mean: 49%
SU-DHL-8 cells [4]; [15]
  percentage of dead cells, Mean: 63%
SU-DHL-8 cells [4]; Rituximab 1 μg/ml, +NK cells
  percentage of dead cells, Mean: 50%
SU-DHL-8 cells [4]; [16]
  percentage of dead cells, Mean: 49%
SU-DHL-8 cells [4]; [17]
  percentage of dead cells, Mean: 58%
SU-DHL-8 cells [4]; [18]
  percentage of dead cells, Mean: 66%
SU-DHL-8 cells [4]; Rituximab 10 μg/ml, +NK cells
  percentage of dead cells, Mean: 60%
SU-DHL-8 cells [4]; [19]
  percentage of dead cells, Mean: 59%
